System: 188146-221-R-J1-PDC complex spheroid viability
Assay: Anticancer human tumor 188146-221-R-J1-PDC patient-derived colon adenocarcinoma cell line growth inhibition [POLQ]
Settings: for IC50: curve of first compound; for viability, T/C: stronger effect = lower value
Outline: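 Three-cell-type spheroids modelling solid tumor plus stroma served as the readout system; POL inhibitors were tested individually and in combination, concentration ranges set by clinical Cmax where known.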

[1] = second compound 0.0316 µM, first compound 0.0316 µM
[2] = second compound 0.0316 µM, first compound 0.1 µM
[3] = second compound 0.0316 µM, first compound 0.316 µM
[4] = second compound 0.0316 µM, first compound 1 µM
[5] = second compound 0.0316 µM, first compound 3.16 µM
[6] = second compound 0.0316 µM, first compound 10 µM
[7] = second compound 0.1 µM, first compound 0.0316 µM
[8] = second compound 0.1 µM, first compound 0.1 µM
[9] = second compound 0.1 µM, first compound 0.316 µM
[10] = second compound 0.1 µM, first compound 1 µM
[11] = second compound 0.1 µM, first compound 3.16 µM
[12] = second compound 0.1 µM, first compound 10 µM
[13] = second compound 0.316 µM, first compound 0.0316 µM
[14] = second compound 0.316 µM, first compound 0.1 µM
[15] = second compound 0.316 µM, first compound 0.316 µM
[16] = second compound 0.316 µM, first compound 1 µM
[17] = second compound 0.316 µM, first compound 3.16 µM
[18] = second compound 0.316 µM, first compound 10 µM
[19] = second compound 1 µM, first compound 0.0316 µM
[20] = second compound 1 µM, first compound 0.1 µM
[21] = second compound 1 µM, first compound 0.316 µM
[22] = second compound 1 µM, first compound 1 µM
[23] = second compound 1 µM, first compound 3.16 µM
[24] = second compound 1 µM, first compound 10 µM
[25] = second compound 3.16 µM, first compound 0.0316 µM
[26] = second compound 3.16 µM, first compound 0.1 µM
[27] = second compound 3.16 µM, first compound 0.316 µM
[28] = second compound 3.16 µM, first compound 1 µM
[29] = second compound 3.16 µM, first compound 3.16 µM
[30] = second compound 3.16 µM, first compound 10 µM
[31] = second compound 10 µM, first compound 0.0316 µM
[32] = second compound 10 µM, first compound 0.1 µM
[33] = second compound 10 µM, first compound 0.316 µM
[34] = second compound 10 µM, first compound 1 µM
[35] = second compound 10 µM, first compound 3.16 µM
[36] = second compound 10 µM, first compound 10 µM
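Note: spheroids exposed to compounds for seven days.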
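Throughout, for viability, T/C: 100% = DMSO vehicle control viability.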

With `O=C(c1cc(Cc2n[nH]c(=O)c3ccccc23)ccc1F)N1CCN(C(=O)C2CC2)CC1` + Cc1cccc(N(C)C(=O)C2C(O)CCN2c2nc(C)cc(C(F)(F)F)c2C#N)c1 the IC50 (second compound 0.0316 µM) was greater than 10 µM, the IC50 (second compound 0.1 µM) was greater than 10 µM and the IC50 (second compound 0.316 µM) was greater than 10 µM. It also gave an IC50 (second compound 1 µM) greater than 10 µM, an IC50 (second compound 3.16 µM) greater than 10 µM and an IC50 (second compound 10 µM) greater than 10 µM. For the same molecule, the viability, T/C [1] was 109%, the viability, T/C [2] was 105% and the viability, T/C [3] was 108%. The viability, T/C [4] was 92.8%, the viability, T/C [5] was 93.9% and the viability, T/C [6] was 73.9%. It also gave a viability, T/C [7] of 108%, a viability, T/C [8] of 103% and a viability, T/C [9] of 101%. For the same molecule, the viability, T/C [10] was 101%, the viability, T/C [11] was 89.5% and the viability, T/C [12] was 88.8%. The viability, T/C [13] was 105%, the viability, T/C [14] was 102% and the viability, T/C [15] was 95.6%. The viability, T/C [16] was 101%, the viability, T/C [17] was 90.2% and the viability, T/C [18] was 77.8%. The viability, T/C [19] was 109%, the viability, T/C [20] was 106% and the viability, T/C [21] was 96.7%. It also gave a viability, T/C [22] of 103%, a viability, T/C [23] of 87.7% and a viability, T/C [24] of 78.4%. For the same molecule, the viability, T/C [25] was 89.5%, the viability, T/C [26] was 102% and the viability, T/C [27] was 106%. It also gave a viability, T/C [28] of 86.7%, a viability, T/C [29] of 93.1% and a viability, T/C [30] of 76.9%. The viability, T/C [31] was 99.8%, the viability, T/C [32] was 90.1% and the viability, T/C [33] was 96.3%. For the same molecule, the viability, T/C [34] was 98.2%, the viability, T/C [35] was 95.6% and the viability, T/C [36] was 82.1%.

`CC(C)n1c(=O)n(C)c2cnc3cc(F)c(-c4ccc(OCCCN5CCCCC5)nc4)cc3c21` + COC1C(OC(N)=O)C(O)C(Oc2ccc3c(O)c(NC(=O)c4ccc(O)c(CC=C(C)C)c4)c(=O)oc3c2C)OC1(C)C was tested, and the IC50 (second compound 0.0316 µM) was greater than 10 µM, the IC50 (second compound 0.1 µM) was greater than 10 µM and the IC50 (second compound 0.316 µM) was greater than 10 µM. It also gave an IC50 (second compound 1 µM) greater than 10 µM, an IC50 (second compound 3.16 µM) greater than 10 µM and an IC50 (second compound 10 µM) greater than 10 µM. It also gave a viability, T/C [1] of 103%, a viability, T/C [2] of 105% and a viability, T/C [3] of 101%. The viability, T/C [4] was 97.6%, the viability, T/C [5] was 94.6% and the viability, T/C [6] was 82.9%. For the same molecule, the viability, T/C [7] was 103%, the viability, T/C [8] was 95.8% and the viability, T/C [9] was 106%. It also gave a viability, T/C [10] of 98%, a viability, T/C [11] of 93.3% and a viability, T/C [12] of 82%. The viability, T/C [13] was 99.6%, the viability, T/C [14] was 104% and the viability, T/C [15] was 94.7%. For the same molecule, the viability, T/C [16] was 89.8%, the viability, T/C [17] was 81.3% and the viability, T/C [18] was 96.2%. The viability, T/C [19] was 96.8%, the viability, T/C [20] was 101% and the viability, T/C [21] was 103%. For the same molecule, the viability, T/C [22] was 102%, the viability, T/C [23] was 102% and the viability, T/C [24] was 86.8%. For the same molecule, the viability, T/C [25] was 98.8%, the viability, T/C [26] was 101% and the viability, T/C [27] was 93.4%. It also gave a viability, T/C [28] of 96.1%, a viability, T/C [29] of 108% and a viability, T/C [30] of 88.7%. For the same molecule, the viability, T/C [31] was 107%, the viability, T/C [32] was 101% and the viability, T/C [33] was 109%. For the same molecule, the viability, T/C [34] was 93.7%, the viability, T/C [35] was 113% and the viability, T/C [36] was 90.9%.

With `CC[C@@]1(O)C(=O)OCc2c1cc1n(c2=O)Cc2cc3c(CN(C)C)c(O)ccc3nc2-1` + Cc1cccc(N(C)C(=O)C2C(O)CCN2c2nc(C)cc(C(F)(F)F)c2C#N)c1 the IC50 (second compound 0.0316 µM) was greater than 0.1 µM, the IC50 (second compound 0.1 µM) was greater than 0.1 µM and the IC50 (second compound 0.316 µM) was greater than 0.1 µM. It also gave an IC50 (second compound 1 µM) greater than 0.1 µM, an IC50 (second compound 3.16 µM) greater than 0.1 µM and an IC50 (second compound 10 µM) greater than 0.1 µM. For the same molecule, the viability, T/C (second compound 0.0316 µM, first compound 0.000316 µM) was 110%, the viability, T/C (second compound 0.0316 µM, first compound 0.001 µM) was 95.1% and the viability, T/C (second compound 0.0316 µM, first compound 0.00316 µM) was 106%. It also gave a viability, T/C (second compound 0.0316 µM, first compound 0.01 µM) of 89.6%, a viability, T/C [1] of 98.1% and a viability, T/C [2] of 68.7%. For the same molecule, the viability, T/C (second compound 0.1 µM, first compound 0.000316 µM) was 112%, the viability, T/C (second compound 0.1 µM, first compound 0.001 µM) was 99.6% and the viability, T/C (second compound 0.1 µM, first compound 0.00316 µM) was 96%. For the same molecule, the viability, T/C (second compound 0.1 µM, first compound 0.01 µM) was 107%, the viability, T/C [7] was 99.1% and the viability, T/C [8] was 77.5%. It also gave a viability, T/C (second compound 0.316 µM, first compound 0.000316 µM) of 109%, a viability, T/C (second compound 0.316 µM, first compound 0.001 µM) of 91.2% and a viability, T/C (second compound 0.316 µM, first compound 0.00316 µM) of 92.4%. It also gave a viability, T/C (second compound 0.316 µM, first compound 0.01 µM) of 87%, a viability, T/C [13] of 96.5% and a viability, T/C [14] of 71.3%. The viability, T/C (second compound 1 µM, first compound 0.000316 µM) was 93.4%, the viability, T/C (second compound 1 µM, first compound 0.001 µM) was 99% and the viability, T/C (second compound 1 µM, first compound 0.00316 µM) was 101%. For the same molecule, the viability, T/C (second compound 1 µM, first compound 0.01 µM) was 104%, the viability, T/C [19] was 97.9% and the viability, T/C [20] was 75.9%. The viability, T/C (second compound 3.16 µM, first compound 0.000316 µM) was 97.2%, the viability, T/C (second compound 3.16 µM, first compound 0.001 µM) was 100% and the viability, T/C (second compound 3.16 µM, first compound 0.00316 µM) was 94.6%. It also gave a viability, T/C (second compound 3.16 µM, first compound 0.01 µM) of 91.8%, a viability, T/C [25] of 92.2% and a viability, T/C [26] of 81%. It also gave a viability, T/C (second compound 10 µM, first compound 0.000316 µM) of 100%, a viability, T/C (second compound 10 µM, first compound 0.001 µM) of 99.6% and a viability, T/C (second compound 10 µM, first compound 0.00316 µM) of 92.4%. For the same molecule, the viability, T/C (second compound 10 µM, first compound 0.01 µM) was 84.2%, the viability, T/C [31] was 78% and the viability, T/C [32] was 54.6%.
